Patent US20240381872A1, “SUBSTITUTED 2,3-DIHYDRO[1,3]THIAZOLO[4,5-B]PYRIDINES, SALTS THEREOF AND THEIR USE AS HERBICIDALLY ACTIVE SUBSTANCES” (BAYER AKTIENGESELLSCHAFT, priority 2021, published 2024)

Assays:
Assay type in all cases: in vivo
[1] = tested on: Alopecurus myosuroides (ALOMY); experiment: Herbicidal pre-emergence action, section C (Table C2); settings: Alopecurus myosuroides, pre-emergence, 504 h; application rate 320 g/ha; visual grading after ca. 3 weeks vs untreated controls; read-out: pre-emergence activity against ALOMY in %
Description: (§1) Seeds of mono- and dicotyledonous weed plants and crop plants were sown, in plastic or organic planting pots, in sandy loam and covered with soil. The compounds according to the invention, formulated in the form of wettable powders (WP) or as emulsifiable concentrates (EC), were applied to the surface of the covering soil as aqueous suspension or emulsion, with the addition of 0.5% of an additive, at an application rate of 600 l of water/ha (converted). Following treatment, the pots were placed in a greenhouse and kept under optimum growth conditions for the test plants. The visual grading of the damage to the test plants was carried out after ca. 3 weeks in comparison to untreated controls (herbicidal effect in percent (%): 100% effect=plants have died off, 0% effect=as control plants).

[2] = tested on: Echinochloa crus-galli (ECHCG); experiment: Herbicidal pre-emergence action, section C (Table C3); settings: Echinochloa crus-galli, pre-emergence, 504 h; application rate 320 g/ha; visual grading after ca. 3 weeks vs untreated controls; read-out: pre-emergence activity against ECHCG in %
Description: as §1

Setaria viridis (SETVI) = experiment: Herbicidal pre-emergence action, section C (Table C8); settings: Setaria viridis, pre-emergence, 504 h; application rate 320 g/ha; visual grading after ca. 3 weeks; read-out: pre-emergence activity against SETVI in %
Description: as §1

[3] = tested on: Amaranthus retroflexus (AMARE); experiment: Herbicidal pre-emergence action, section C (Table C11); settings: visual grading after ca. 3 weeks
Description: as §1

Zea mays (ZEAMX) [4] = experiment: Pre-emergence effects on crop plants, section D (Table D1); settings: visual grading after ca. 3 weeks
Description: (§2) Seeds of mono- and dicotyledonous weed plants and crop plants were sown, in plastic or organic planting pots, in sandy loam and covered with soil. The compounds according to the invention, formulated in the form of wettable powders (WP) or as emulsifiable concentrates (EC), were applied to the surface of the covering soil as aqueous suspension or emulsion, with the addition of 0.5% of an additive, at an application rate of 600 l of water/ha (converted).
(§3) Following treatment, the pots were placed in a greenhouse and kept under optimum growth conditions for the test plants. The visual grading of the damage to the test plants was carried out after ca. 3 weeks in comparison to untreated controls (herbicidal effect in percent (%): 100% effect=plants have died off, 0% effect=as control plants).
(§4) Tables D1 to D5 below show the effects of various compounds of the general formula (I) according to Table 1 on various crop plants and an application rate corresponding to 320 g/ha or below obtained by the experimental procedure mentioned above in Biological Examples, Section C.

[5] = tested on: Triticum aestivum (TRZAS); experiment: Pre-emergence effects on crop plants, section D (Table D2); settings: visual grading after ca. 3 weeks
Outline: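 Pre-emergence soil-surface spray, 320 g/ha or below, 600 l water/ha + 0.5% additive; WP/EC formulations; sandy loam; greenhouse; visual % damage vs untreated at ~3 wk.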

Oryza sativa (ORYZA) [6] = experiment: Pre-emergence effects on crop plants, section D (Table D3); settings: visual grading after ca. 3 weeks
Description: as §2, §3, §4

Brassica napus (BRSNW) [7] = experiment: Pre-emergence effects on crop plants, section D (Table D5); settings: visual grading after ca. 3 weeks
Description: as §2, §3, §4

Veronica persica (VERPE) [8] = experiment: Herbicidal post-emergence action, section E (Table E9); settings: Veronica persica, 504 h, application rate 320 g/ha, visual assessment ca. 3 weeks after spraying, read-out: post-emergence activity against VERPE in %
Description: (§5) Seeds of mono- and dicotyledonous weed plants and crop plants were sown, in plastic or organic planting pots, in sandy loam, covered with soil and grown in a greenhouse under controlled growth conditions. 2 to 3 weeks after sowing, the test plants were sprayed in the single-leaf stage. The compounds according to the invention, formulated in form of wettable powders (WP) or as emulsifiable concentrates (EC), were sprayed onto the green plant parts as aqueous suspension or emulsion, with the addition of 0.5% of an additive, at an application rate of 600 l of water/ha (converted). The test plants were placed in the greenhouse for ca. 3 weeks under optimum growth conditions, and then the effect of the preparations was assessed visually in comparison with untreated controls (herbicidal effect in percent (%): 100% effect=plants have died off, 0% effect=as control plants).

Zea mays (ZEAMX) [9] = experiment: Post-emergence effects on crop plants, section F (Table F1)
Outline: (§6)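 After sowing in sandy loam and 2–3 weeks' greenhouse growth, single-leaf plants received foliar sprays (WP or EC, 0.5% additive, 600 l/ha water, ≤320 g/ha). Around 3 weeks on, herbicidal effect was estimated by eye, 0% meaning like controls and 100% meaning plants died.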

[10] = tested on: Triticum aestivum (TRZAS); experiment: Post-emergence effects on crop plants, section F (Table F2)
Outline: as §6

Oryza sativa (ORYZA) [11] = experiment: Post-emergence effects on crop plants, section F (Table F3); settings: Oryza sativa, 504 h, read-out: post-emergence activity against ORYZA in %
Description: as §5, with “plants). Tables F1 to F4 below show the effects of selected compounds of the general formula (I) according to Table 1 on various crop plants and an application rate corresponding to 320 g/ha or below obtained by the experimental procedure mentioned above.” for “plants).”

Glycine max (GLXMA) [12] = experiment: Post-emergence effects on crop plants, section F (Table F4)
Outline: as §6

Brassica napus (BRSNW) [13] = experiment: Post-emergence effects on crop plants, section F (Table F5); settings: application rate 80 g/ha; for crop plant damage (phytotoxicity) in % at 80 g/ha: Brassica napus, 504 h, read-out: post-emergence activity against BRSNW in %
Description: as §5, with “plants). Tables F1 to F4 below show the effects of selected compounds of the general formula (I) according to Table 1 on various crop plants and an application rate corresponding to 320 g/ha or below obtained by the experimental procedure mentioned above.” for “plants).”

Glycine max (GLXMA) [14] = experiment: Pre-emergence effects on crop plants, section D (Table D4); settings: visual grading after ca. 3 weeks
Description: as §2, §3, §4

Veronica persica (VERPE) [15] = experiment: Herbicidal pre-emergence action, section C (Table C10); settings: application rate 320 g/ha, visual grading after ca. 3 weeks
Description: as §1

[16] = tested on: Digitaria sanguinalis (DIGSA); experiment: Herbicidal pre-emergence action, section C (Table C12); settings: Digitaria sanguinalis, pre-emergence, 504 h; application rate 320 g/ha; visual grading after ca. 3 weeks; read-out: pre-emergence activity against DIGSA in %
Description: as §1

Kochia scoparia (KCHSC) [17] = experiment: Herbicidal pre-emergence action, section C (Table C13); settings: application rate 320 g/ha, visual grading after ca. 3 weeks
Description: as §1

[18] = tested on: Polygonum convolvulus (POLCO); experiment: Herbicidal post-emergence action, section E (Table E7); settings: Fallopia convolvulus, 504 h, application rate 320 g/ha, visual assessment ca. 3 weeks after spraying, read-out: post-emergence activity against POLCO in %
Description: as §5

Kochia scoparia (KCHSC) [19] = experiment: Herbicidal post-emergence action, section E (Table E11); settings: visual assessment ca. 3 weeks after spraying
Description: as §5

[20] = tested on: Polygonum convolvulus (POLCO); experiment: Herbicidal pre-emergence action, section C (Table C7); settings: application rate 320 g/ha; visual grading after ca. 3 weeks
Description: as §1

[21] = Glycine max, 504 h, application rate 320 g/ha, read-out: post-emergence activity against GLXMA in %
[22] = Zea mays, 504 h, application rate 320 g/ha, read-out: post-emergence activity against ZEAMX in %
[23] = Triticum aestivum, 504 h, application rate 320 g/ha, read-out: post-emergence activity against TRZAS in %
[24] = crop plant damage, application rate 320 g/ha

SMILES | pest or weed control at 320 g/ha [2] [%] | pest or weed control at 320 g/ha (Setaria viridis (SETVI)) [%] | pre-emergence activity against ZEAMX in % (crop plant damage) (Zea mays (ZEAMX) [4]; application rate 80 g/ha) [%] | pre-emergence activity against TRZAS in % (crop plant damage) ([5]; application rate 320 g/ha) [%] | pre-emergence activity against BRSNW in % (crop plant damage) (Brassica napus (BRSNW) [7]; application rate 320 g/ha) [%] | pest or weed control at 320 g/ha (Veronica persica (VERPE) [8]) [%] | percent crop plant damage at 320 g/ha (Glycine max (GLXMA) [12]; [21]) [%] | crop plant damage (phytotoxicity) in % at 80 g/ha (Brassica napus (BRSNW) [13]) [%] | pre-emergence activity against ZEAMX in % (crop plant damage) (Zea mays (ZEAMX) [4]; application rate 320 g/ha) [%] | percent crop plant damage (phytotoxicity) on Zea mays, post-emergence at 320 g/ha (Zea mays (ZEAMX) [9]; [22]) [%] | percent crop plant damage (wheat, post-emergence) at 320 g/ha [10, 23] [%] | pre-emergence activity against GLXMA in % (crop plant damage) (Glycine max (GLXMA) [14]; application rate 80 g/ha) [%] | other results
O=C(C1CCCC1)N1CSc2cc(Br)c(-c3ccccc3F)nc21 [Example I-021, [6-bromo-5-(2-fluorophenyl)[1,3]thiazolo[4,5-b]pyridin-3(2H)-yl](cyclopentyl)methanone] | 90 | 80 | 0 | 0 | 0 | 80 | 20 | 10 | – | – | – | – | pest or weed control at 320 g/ha [1]: 80%; pest or weed control at 80 g/ha ([3]; Amaranthus retroflexus, pre-emergence, 504 h, application rate 80 g/ha, read-out: pre-emergence activity against AMARE in %): 100%; pre-emergence activity against ORYZA in % (crop plant damage) (Oryza sativa (ORYZA) [6]; application rate 80 g/ha): 10%; percent crop plant damage (phytotoxicity) on Zea mays, post-emergence at 80 g/ha (Zea mays (ZEAMX) [9]; Zea mays, 504 h, application rate 80 g/ha, read-out: post-emergence activity against ZEAMX in %): 10%; percent crop plant damage (wheat, post-emergence) at 80 g/ha ([10]; Triticum aestivum, 504 h, application rate 80 g/ha, read-out: post-emergence activity against TRZAS in %): 0%; percent crop plant damage at 80 g/ha (Oryza sativa (ORYZA) [11]; application rate 80 g/ha): 10%
O=C(c1ccccc1C(F)(F)F)N1CSc2cc(Br)c(-c3ccccc3Cl)nc21 [Example I-061, [6-bromo-5-(2-chlorophenyl)[1,3]thiazolo[4,5-b]pyridin-3(2H)-yl][2-(trifluoromethyl)-phenyl]methanone] | – | – | – | 0 | 20 | – | 0 | 0 | 0 | 20 | 0 | – | pre-emergence activity against ORYZA in % (crop plant damage) (Oryza sativa (ORYZA) [6]; application rate 320 g/ha): 20%; pre-emergence activity against GLXMA in % (crop plant damage) (Glycine max (GLXMA) [14]; application rate 320 g/ha): 0%; percent crop plant damage at 320 g/ha (Oryza sativa (ORYZA) [11]; application rate 320 g/ha): 0%
CS(=O)(=O)N1C[S+]([O-])c2cc(Br)c(-c3ccccc3Cl)nc21 (stereo not shown) [Example I-133] | 100 | 100 | – | – | – | 80 | – | 0 | 20 | 0 | 0 | 20 | pest or weed control at 320 g/ha (Veronica persica (VERPE) [15]; Veronica persica, pre-emergence, 504 h, read-out: pre-emergence activity against VERPE in %): 80%; pest or weed control at 320 g/ha [16]: 100%; pest or weed control at 320 g/ha (Kochia scoparia (KCHSC) [17]; Bassia scoparia, pre-emergence, 504 h, read-out: pre-emergence activity against KCHSC in %): 90%; pre-emergence activity against TRZAS in % (crop plant damage) ([5]; application rate 80 g/ha): 0%; pest or weed control at 320 g/ha [18]: 80%; pest or weed control at 80 g/ha (Kochia scoparia (KCHSC) [19]; Bassia scoparia, 504 h, application rate 80 g/ha, read-out: post-emergence activity against KCHSC in %): 90%; percent crop plant damage at 80 g/ha (Glycine max (GLXMA) [12]; Glycine max, 504 h, application rate 80 g/ha, read-out: post-emergence activity against GLXMA in %): 0%
COCCOCCOCC(=O)N1CSc2cc(Br)c(-c3cccc(F)c3F)nc21 [Example I-148] | – | – | 0 | 0 | – | – | – | – | – | – | – | 0 | pre-emergence activity against POLCO in % [20]: 80%; pre-emergence activity against VERPE in % (Veronica persica (VERPE) [15]): 80%; pre-emergence activity against AMARE in % ([3]; application rate 320 g/ha): 90%; pre-emergence activity against KCHSC in % (Kochia scoparia (KCHSC) [17]): 90%; pre-emergence activity against BRSNW in % (crop plant damage) (Brassica napus (BRSNW) [7]; application rate 80 g/ha): 0%; post-emergence activity against KCHSC in % (Kochia scoparia (KCHSC) [19]; application rate 320 g/ha): 80%; post-emergence activity against ZEAMX in % (Zea mays (ZEAMX) [9]; [24]): 0%; post-emergence activity against TRZAS in % [10, 24]: 0%; post-emergence activity against GLXMA in % (Glycine max (GLXMA) [12]; [24]): 0%; post-emergence activity against BRSNW in % (Brassica napus (BRSNW) [13]; crop plant damage): 20%
